Laboratory results as given in patent US12221494B2, “Short synthetic peptides and their uses for treating retinal degenerative diseases and/or tissue injuries” (MacKay Memorial Hospital, priority 2019, dated 2025).
Ends that are not written are not given here.

Columns and labels:
[1] = test system: Neuro-2a cells; experiment: Glutamate-induced Neuro-2a cell death (LDH release); type: cell-based, mouse; details: glutamate-induced cell death
Protocol: Neuro-2a cells were seeded in 48-well culture plates (1.5×10^5 cells/well) for 24 h, and then cultured in 0.5 ml fresh 2% FBS-DMEM medium containing 20 μM of the present peptide (7 μg of 6-mer in 0.5 ml medium) for further 4 h. Subsequently, 100 mM glutamate (from 1 M stock and PBS as solvent) was added to cells for further 6 h. Glutamate-induced cell death was quantitatively assessed by measuring lactate dehydrogenase (LDH) activity released into the culture medium by damaged cells. LDH activity was measured using PicoProbe™ LDH-Cytotoxicity Fluorometric Assay Kit (Catalog #K314-500; BioVision) according to the instruction manuals. LDH activity was estimated using an automated microplate reader (UVmax; Molecular Devices, San Francisco, CA) by measuring the fluorescent product (Ex/Em=535/587 nm).
Briefly, cells were pretreated with the designated peptide (i.e., any of SEQ ID NOs: 2 to 11) for 4 h and then treated with 100 mM glutamate for 6 h. The cell death was detected by a commercial lactate dehydrogenase (LDH) Cytotoxicity Assay Kit. Results are depicted in FIG. 1.

[2] = test system: STAT3; experiment: Western blot of STAT3 phosphorylation in C2C12 cells; type: cell-based, mouse; details: C2C12 myoblast cells, 5 to 20 min after stimulation
Protocol: Cell lysis, fractionation, and SDS-PAGE were conducted in accordance with procedures described previously (Yang Y C et al., BMC Cancer 2007; 7:216). Antibodies used in this study were for Phospho-Stat3 and STAT3 (1:1000-fold dilution). Proteins of interest were detected using the appropriate IgG-HRP secondary antibody (Santa Cruz Biotechnology) and ECL reagent (Amersham Biosciences).

[3] = test system: C57BL/6 mice, dry eye induced in controlled environment chamber (CEC); experiment: Dry eye animal model, corneal fluorescein staining; type: in vivo, mouse; details: mice 14 days in CEC, then treatment for 4 days
Protocol: Dry eyes were induced by placing mice in a controlled environment chamber (CEC) for 14 days in accordance with procedures previously described by Barabino et al (IVOS (2005) 46(8), 2766-2771). Mice placed in the CEC were exposed to a condition, in which relative humidity (RH) was maintained at <25%, temperature at 20-22° C., and airflow at about 15 L/min, for 12 hours per day. Control mice were kept in a normal environment (RH>50%, no air flow, temperature of 20-22° C.) for the same duration.
A common artificial tear formulation, 1% carboxymethylcelllulose (CMC) dissolved in balanced salt solution (BSS) was used as the peptide vehicle. Peptide (100 μM, about 0.7 μg peptide in 10 μl eye drop used for treating one eye) or 1% CMC vehicle was topically administered to eyes three times a day. To test whether the present synthetic peptide could exert any therapeutic action on dry eyes, mice were housed at CEC for 14 days without topical treatment, and then were treated with the present peptide for 4 days.
Animals were anesthetized by an intraperitoneal injection of a mixture of zoletil (6 mg/kg) and xylazine (3 mg/kg). Corneal epithelial injury was determined by staining with topical fluorescein (Fluor-I-Strip, Ayerst Laboratories, Philadelphia, PA). Corneal fluorescein staining was examined with a slit-lamp biomicroscope under cobalt blue light and photographed with a digital camera. Dye staining of the cornea was scored in a blinded manner as follows: score 0 for no punctuate staining; score 1 when less than one third of the cornea was stained; score 2 when two thirds or less was stained; and score 3 when more than two thirds was stained (Horwath-Winter J 2013).
Briefly, mice were housed at controlled environment chamber (CEC) for 14 days (set as Day 0) to induce corneal surface disruption. Corneal fluorescein staining was used to estimate the corneal surface injury and the animal with a staining score of 2 (after mice placed at CEC for 14 days) was subjected to peptide treatment. The 6-mer variant peptide formulation for the treatment of DED was described in Methods. […]

[4] = test system: survivin mRNA; experiment: Real-time qPCR of survivin mRNA in C2C12 cells; type: cell-based, mouse; details: C2C12 cells in low serum media, 20 μM peptide, 6 h
Protocol: (§1) Total RNA was extracted from cells using TRIzol (Invitrogen). Synthesis of cDNA was performed with 1 μg of total RNA at 50° C. for 50 min using oligo(dT) primers and reverse transcriptase (Superscript III; Invitrogen). Briefly, quantification of cDNA was performed in the LightCycler (Roche, Mannheim, Germany) using the DNA Master SYBR Green I kit (Roche) with the following cycling conditions: initial denaturation at 95° C. for 10 min, followed by 40 cycles at 95° C. for 10 s, 60° C. for 10 s, and 72° C. for 10 s and a 5-min terminal incubation at 72° C. The data were calculated with AACt. The expression was then normalized against the expression of glyceraldehyde-3-phosphate dehydrogenase (GAPDH). The PCR primers were mouse Survivin sense, 5′-[…]-3′ (SEQ ID NO: 27), anti-sense, 5′-[…]-3′ (SEQ ID NO: 28) (accession number: NM_001012273.1; PCR product: 136 bp); mouse GAPDH sense, 5′-[…]-3′ (SEQ ID NO: 29), anti-sense, 5′-[…]-3′ (SEQ ID NO: 30) (NM_001289726.1; 149 bp). For analysis rabbit inflammatory gene expression, The PCR primers were rabbit TNF-αsense, 5′-[…]-3′ (SEQ ID NO: 31), anti-sense, 5′-[…]-3′ (SEQ ID NO: 32) (accession number: NM 001082263.1); rabbit IL-1βsense, 5′-[…]-3′(SEQ ID NO: 33), anti-sense, 5′-[…]-3′ (SEQ ID NO: 34) (NM 001082201.1); rabbit GAPDH sense, 5′-[…]-3′ (SEQ ID NO: 35), anti-sense, 5′-[…]-3′ (SEQ ID NO: 36) (accession number:NM 001082253.1). The cycle threshold (Ct) values of the PCR product and a GAPDH (Glyceraldehyde 3-phosphate dehydrogenase) control mRNA were used to calculate relative quantities of mRNA.
Similar to the approach in Example 1.2.1, the expression level of survivin mRNA in C2C12 cells was used as an indicator for the function of the 6-mer variants in Tables 3 to 5. Briefly, C2C12 cells in low serum media were treated with 20 μM the 6-mer variants for 6 h. […] The results also confirmed that alanine substation at the glutamic acid (E) residues would severely impair the 6-mer activity.

[5] = test system: Sprague-Dawley rats, retinal ischemia/reperfusion (I/R) injury; experiment: TUNEL staining of I/R-injured rat retina (20 h); type: in vivo; details: for Number of TUNEL-positive cells in retina: subconjunctival injection 1 mM 4 h before I/R, 20 hours after I/R injury, Vehicle + I/R 27.2 ± 2.7; for I/R-induced retinal cell apoptosis (TUNEL staining), in words: subconjunctival injection prior to I/R, 20 h reperfusion
Protocol: Experimental procedures were approved by the Mackay Memorial Hospital Review Board (Taiwan, R.O.C.). All surgeries were performed under aseptic conditions. Adult 10-week-old male Sprague-Dawley rats (initial body weight=312±11 g) were anesthetized by an intraperitoneal injection of xylazine (10 mg/kg). Peptide was dissolved in 0.85% normal saline to 1 mM and delivered by the subconjunctival injection of 100 μL peptide through a 31-Gneedle with a micro-syringe before the induction of I/R. Normal saline was as a vehicle control. Rat I/R was performed after peptide or vehicle injection for 4 h. Pupils were dilated with 0.5% tropicamide and 0.5% phenylephrine. Body temperature was maintained at 37° C. using a heating blanket After dilation of the pupil, the anterior chamber of the right eye was cannulated with a 27-gauge needle connected to a physiological saline reservoir. The intraocular pressure (IOP) was raised to 110 mmHg by keeping the reservoir at 150 cm above the eye, and retinal ischemia was confirmed by observing whitening of the iris and the loss of the red reflex of the retina. After 90 min of ischemia, the cannulating needle was withdrawn and the IOP was returned to normal pressure, resulting in recovery of the blood supply from the retinal artery and reperfusion injury induced. The reperfusion was evident by the return of the red reflex. Corneal analgesia was achieved using 1 or 2 drops of 0.4% oxybuprocaine hydrochloride, and Ofloxacin ophthalmic gel (0.3%) was applied topically to the eye before and after the procedure. Only the right eye was used in all experiments. A sham procedure was performed at left eye served as an intra-animal control.
After I/R for 20 h, rats (n=6 in each group) were euthanized by an overdose of pentobarbital. Enucleated eyeballs were fixed in 4% PFA for 24 h at 4° C. Fixed retinal tissues were embedded in paraffin. To identify apoptosis of retinal cells, 5 μm sections thick cut through the optic disc, de-paraffinized, rehydrated, incubatedwith 20 μg/mL proteinase K for 10 min, and immunofluorescence staining of apoptotic cells was performed using a terminal deoxynucleotidyl transferase(TdT)-mediated dUTP nick-end labeling (TUNEL)-based kit (Roche Molecular Biochemicals, Indianapolis, IN) according to the manufacturer's instructions. Nuclei were located by counterstaining with Hoechst 33258 for 7 min Sections were observed under an epifluorescence microscope (Zeiss Axioplan 2 imaging; Zeiss, Oberkochen, Germany) equipped with a charge-coupled device (CCD) camera (Zeiss AxioCam HRm, Zeiss) (×400, 6 fields/sample), and quantification was performed using Axiovert software (Zeiss AxioVision Release 4.8.2, Zeiss). Three sections per eye were averaged and the mean of six eyes was recorded as the representative value for each group.
In this example, the neuroprotective effect of the 6-mer variant peptides on neural retina cells and retinal capillary system was investigated using a rat model of I/R injury described in the “Material and Methods” section. Briefly, 6-mer variant peptide (1 mM, 120 μl) was injected into the subconjunctival space of Sprague-Dawley rats for 4 h before the induction of I/R. Then, I/R injury was induced in rat retinas by increasing the intraocular pressure (IOP) in the eye to 110 mmHg for 90 min, followed by 20 h of reperfusion. Subsequently, the level of retinal cell apoptosis was evaluated using TUNEL staining. In addition, the retinal morphology was analyzed with H&E staining 14 days after the I/R injury. Results are summarized in FIGS. 6 to 10, and Tables 6 to 9.

[6] = test system: IL-1β mRNA; experiment: Hyperosmotic stress-induced IL-1β gene expression in rabbit corneal epithelial cells (qPCR); type: cell-based; details: 20 μM peptide 6 h, then hyperosmotic medium (463 mOsM) 3 h, solvent 4.5-fold
Protocol: as §1
(§2) Limbal stem epithelial cells (LSEC) were isolated from 6-month-old New Zealand white rabbits and continuously cultivated for 14 days byDMEM/F-12basalmedium based cell-suspension culture to achieve corneal-liked epithelial cell differentiation as previously described (Ho et al., Stem Cells. 2013; 31:1775). […] After 3 h, quantitative real-time PCR was used to estimate HOP-induced Tumor necrosis factor (TNF)-α and nterleukin-1 beta (IL-1β) expressions. […]

[7] = test system: TNF-α mRNA; experiment: Hyperosmotic stress-induced TNF-α gene expression in rabbit corneal epithelial cells (qPCR); type: cell-based; details: 20 μM peptide 6 h, then hyperosmotic medium (463 mOsM) 3 h, solvent 12.8-fold
Protocol: as §1, §2

| Substance | protective effect on Neuro-2a cells (neuroprotective activity), in words [1] | STAT3 phosphorylation (immunoblot) [2] | therapeutic effect on corneal fluorescein staining, in words [3] | survivin mRNA induction, in words [4] | Number of TUNEL-positive cells in retina [5] | I/R-induced retinal cell apoptosis (TUNEL staining), in words [5] | mRNA expression of IL-1β, in words [6] | mRNA expression of TNF-α, in words [7] | survivin mRNA induction compared to solvent control [4] [fold] |
| --- | --- | --- | --- | --- | --- | --- | --- | --- | --- |
| NH2-(D-Ser)-Leu-Gly-Ala-Glu-COOH (SLGAE; HELM PEPTIDE1{[dS].L.G.A.E}$$$$V2.0; SMILES CC(C)C[C@H](NC(=O)[C@H](N)CO)C(=O)NCC(=O)N[C@@H](C)C(=O)N[C@@H](CCC(=O)O)C(=O)O) [5-mer dS] | lacks any significant neuroprotective activity | possessed no such effect | – | – | – | – | – | – | – |
| NH2-Ser-Leu-Gly-(D-Ala)-Glu-Gln-COOH (SLGAEQ; HELM PEPTIDE1{S.L.G.[dA].E.Q}$$$$V2.0; SMILES CC(C)C[C@H](NC(=O)[C@@H](N)CO)C(=O)NCC(=O)N[C@H](C)C(=O)N[C@@H](CCC(=O)O)C(=O)N[C@@H](CCC(N)=O)C(=O)O) [6-mer dA] | – | – | had no therapeutic effect | hamper the survivin gene induction activity significantly | – | – | – | – | – |
| NH2-The-Leu-Gly-Ala-Glu-Gln-COOH (TLGAEQ; not fully specified (N-terminus, C-terminus); printed as NH2-The-Leu-Gly-Ala-Glu-Gln-COOH) [6-mer St] | – | – | had no therapeutic effect | severely impaired the survivin mRNA induction | 21.8 ± 1.8 /200 μm | had no such effect | – | – | – |
| NH2-Ala-Leu-Gly-Ala-Glu-Gln-COOH (ALGAEQ; not fully specified (N-terminus, C-terminus); printed as NH2-Ala-Leu-Gly-Ala-Glu-Gln-COOH) [6-mer Sa] | – | – | – | – | 12.6 ± 1.1 /200 μm | reduced the retinal cell apoptosis induced by I/R | apparently repressed the mRNA expression of TNF-α and IL-1β | apparently repressed the mRNA expression of TNF-α and IL-1β | 1.7 |
| NH2-Ser-Leu-Val-Ala-Glu-Gln-COOH (SLVAEQ; not fully specified (N-terminus, C-terminus); printed as NH2-Ser-Leu-Val-Ala-Glu-Gln-COOH) [6-mer Gv] | – | – | – | – | 10.4 ± 1.4 /200 μm | reduced the retinal cell apoptosis induced by I/R | apparently repressed the mRNA expression of TNF-α and IL-1β | apparently repressed the mRNA expression of TNF-α and IL-1β | 2.3 |
